We go through 13 compounds from publication PMC6416464 (Drug Metabolism Letters, 2018).

Where two headings read alike, the source gives them in different places.

Series [1] in a line: Metabolic stability, incubation with human liver cytosol. The class given is in vitro ADME. The conditions noted are these: 1 µM test compound, 1 mg/mL protein.
Series [2] concerns the target T1, CYP3A4 (Homo sapiens, UniProt P08684). The series can be described thus: in vitro. The conditions noted are these: microsomes, pH 7.4, % Inhibition of Control Activity CYP3A4 (substrate, testosterone).
Series [3] addresses T1, CYP3A4. Briefly: in vitro. To be noted: microsomes, pH 7.4.
The nature of series [4]: Metabolic stability, incubation with human liver microsomes. To be noted: 1 µM test compound, 0.5 mg/mL protein.
The target in a further series is T2, CYP2C8 (Homo sapiens, UniProt P10632).
T2 sequence (P10632 1-490): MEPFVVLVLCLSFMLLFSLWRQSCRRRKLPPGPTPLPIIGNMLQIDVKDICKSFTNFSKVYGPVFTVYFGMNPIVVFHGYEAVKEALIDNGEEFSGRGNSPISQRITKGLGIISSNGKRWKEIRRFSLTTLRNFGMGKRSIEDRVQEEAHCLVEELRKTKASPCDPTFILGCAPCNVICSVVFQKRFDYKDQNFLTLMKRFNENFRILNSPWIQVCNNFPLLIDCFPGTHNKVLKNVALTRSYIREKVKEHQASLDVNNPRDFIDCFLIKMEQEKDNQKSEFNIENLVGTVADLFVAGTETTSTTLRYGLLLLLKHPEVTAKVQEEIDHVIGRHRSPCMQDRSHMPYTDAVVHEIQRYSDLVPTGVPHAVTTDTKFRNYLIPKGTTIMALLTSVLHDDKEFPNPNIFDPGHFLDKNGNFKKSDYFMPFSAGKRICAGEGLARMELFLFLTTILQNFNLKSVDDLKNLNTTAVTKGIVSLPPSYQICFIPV
Briefly: CYP inhibition in human liver microsomes, CYP2C8. To be noted: human, human liver microsomes, pH 7.4, probe paclitaxel. (In general: Liver microsomes are vesicles of endoplasmic reticulum, rich in cytochrome P450 enzymes.)

The next series has as its target rCYP3A4 (Homo sapiens, UniProt P08684).
Another series deals with T3, rCYP1A2 (Homo sapiens, UniProt P05177).
T3 sequence (P05177 1-516): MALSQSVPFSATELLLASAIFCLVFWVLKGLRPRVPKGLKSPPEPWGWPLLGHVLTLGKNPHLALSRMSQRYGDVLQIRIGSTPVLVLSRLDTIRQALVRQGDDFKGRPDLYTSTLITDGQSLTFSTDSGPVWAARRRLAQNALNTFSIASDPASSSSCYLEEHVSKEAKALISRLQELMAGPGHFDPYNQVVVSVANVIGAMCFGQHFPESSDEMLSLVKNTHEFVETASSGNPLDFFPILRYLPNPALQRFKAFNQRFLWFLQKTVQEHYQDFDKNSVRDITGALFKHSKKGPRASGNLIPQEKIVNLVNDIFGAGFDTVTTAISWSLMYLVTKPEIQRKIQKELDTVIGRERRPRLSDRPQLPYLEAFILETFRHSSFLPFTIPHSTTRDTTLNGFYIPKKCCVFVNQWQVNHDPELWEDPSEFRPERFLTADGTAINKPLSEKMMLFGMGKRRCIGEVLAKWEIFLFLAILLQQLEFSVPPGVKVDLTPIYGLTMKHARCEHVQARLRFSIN
The series can be described thus: Metabolic stability / reaction phenotyping with recombinant human CYP1A2. To be noted: 1 µM test compound; 100 pmol/mL; 30 min.

The next series concerns the target T4, rCYP2C8 (Homo sapiens, UniProt P10632).
T4 sequence (P10632 1-490): T2 sequence (P10632 1-490)
Briefly: Metabolic stability / reaction phenotyping with recombinant human CYP2C8. The conditions noted are these: for % Metabolized at 30 min Incubation with Human Liver Fractions/Enzymes rCYP2C8: 1 µM test compound, 100 pmol/mL.

The next series has as its target rCYP2C9 (Homo sapiens, UniProt P11712). The series can be described thus: Metabolic stability / reaction phenotyping with recombinant human CYP2C9. The conditions noted are these: for % Metabolized at 30 min Incubation with Human Liver Fractions/Enzymes rCYP2C9: 1 µM test compound, 100 pmol/mL.
Another series has as its target rCYP2D6 (Homo sapiens, UniProt P10635). Briefly: Metabolic stability / reaction phenotyping with recombinant human CYP2D6. To be noted: 1 µM test compound; 100 pmol/mL; 30 min.
For the next series, the target named is rCYP2C19 (Homo sapiens, UniProt P33261). Briefly: Metabolic stability / reaction phenotyping with recombinant human CYP2C19. To be noted: for % Metabolized at 30 min Incubation with Human Liver Fractions/Enzymes rCYP2C19: 1 µM test compound, 100 pmol/mL.
In a further series the target is T5, CYP1A2 (Homo sapiens, UniProt P05177).
T5 sequence (P05177 1-516): T3 sequence (P05177 1-516)
The series can be described thus: CYP inhibition in human liver microsomes, CYP1A2. The conditions noted are these: human, human liver microsomes, pH 7.4, probe phenacetin, Percent inhibition, positive control inhibitor, CYP1A2, concentration tested 20 nM.

[5] abbreviates: 1 µM test compound, 100 pmol/mL, 30 min.
Where [6] appears, read: human, recombinant enzyme, pH 7.4.
Setting [7] is: human, recombinant human CYP2C19, 1 µM, pH 7.4.
[8] abbreviates: human, recombinant human CYP2C8, 1 µM, pH 7.4.
The mark [9] stands for this setting: human, recombinant human CYP2C9, 1 µM, pH 7.4.

Chain of rCYP3A4 (P08684 whole entry): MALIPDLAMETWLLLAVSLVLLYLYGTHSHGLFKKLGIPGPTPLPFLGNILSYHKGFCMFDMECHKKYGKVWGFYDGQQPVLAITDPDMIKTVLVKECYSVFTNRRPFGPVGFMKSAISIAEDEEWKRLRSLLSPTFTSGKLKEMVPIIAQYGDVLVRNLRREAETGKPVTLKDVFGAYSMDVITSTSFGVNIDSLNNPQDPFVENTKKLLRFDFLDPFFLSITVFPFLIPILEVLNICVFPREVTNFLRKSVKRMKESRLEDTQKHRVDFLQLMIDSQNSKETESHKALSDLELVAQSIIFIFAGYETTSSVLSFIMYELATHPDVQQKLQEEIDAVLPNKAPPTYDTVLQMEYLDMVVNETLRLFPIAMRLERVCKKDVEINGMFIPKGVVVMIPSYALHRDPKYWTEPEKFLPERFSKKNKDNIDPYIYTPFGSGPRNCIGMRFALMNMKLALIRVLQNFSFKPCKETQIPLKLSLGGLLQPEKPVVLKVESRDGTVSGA
Chain of rCYP2C19 (P33261 whole entry): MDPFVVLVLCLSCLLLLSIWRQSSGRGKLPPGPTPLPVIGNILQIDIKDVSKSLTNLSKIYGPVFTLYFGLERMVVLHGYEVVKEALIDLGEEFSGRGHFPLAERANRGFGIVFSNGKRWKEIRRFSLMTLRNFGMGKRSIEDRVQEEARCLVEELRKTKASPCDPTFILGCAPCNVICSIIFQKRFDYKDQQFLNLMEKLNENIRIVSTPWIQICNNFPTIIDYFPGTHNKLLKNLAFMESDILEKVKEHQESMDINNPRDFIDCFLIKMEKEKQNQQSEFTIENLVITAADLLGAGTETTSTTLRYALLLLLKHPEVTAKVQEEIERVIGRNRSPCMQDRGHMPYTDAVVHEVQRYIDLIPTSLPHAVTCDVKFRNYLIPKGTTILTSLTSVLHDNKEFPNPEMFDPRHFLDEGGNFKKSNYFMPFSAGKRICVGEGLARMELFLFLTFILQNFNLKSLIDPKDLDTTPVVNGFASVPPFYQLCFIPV
Chain of rCYP2C9 (P11712 whole entry): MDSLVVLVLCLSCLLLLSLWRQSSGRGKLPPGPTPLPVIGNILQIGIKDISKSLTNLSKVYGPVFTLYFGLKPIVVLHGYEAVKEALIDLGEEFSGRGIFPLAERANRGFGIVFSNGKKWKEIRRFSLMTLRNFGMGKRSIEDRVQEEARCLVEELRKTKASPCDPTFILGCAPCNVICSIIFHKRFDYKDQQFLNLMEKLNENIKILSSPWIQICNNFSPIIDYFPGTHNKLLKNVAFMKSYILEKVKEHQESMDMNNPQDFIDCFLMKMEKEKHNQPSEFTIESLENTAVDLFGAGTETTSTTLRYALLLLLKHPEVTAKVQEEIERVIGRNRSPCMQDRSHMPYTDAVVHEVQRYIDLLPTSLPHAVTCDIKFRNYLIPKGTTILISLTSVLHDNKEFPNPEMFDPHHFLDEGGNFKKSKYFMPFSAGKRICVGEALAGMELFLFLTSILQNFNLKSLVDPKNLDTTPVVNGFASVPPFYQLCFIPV
T1 sequence (P08684 2-503): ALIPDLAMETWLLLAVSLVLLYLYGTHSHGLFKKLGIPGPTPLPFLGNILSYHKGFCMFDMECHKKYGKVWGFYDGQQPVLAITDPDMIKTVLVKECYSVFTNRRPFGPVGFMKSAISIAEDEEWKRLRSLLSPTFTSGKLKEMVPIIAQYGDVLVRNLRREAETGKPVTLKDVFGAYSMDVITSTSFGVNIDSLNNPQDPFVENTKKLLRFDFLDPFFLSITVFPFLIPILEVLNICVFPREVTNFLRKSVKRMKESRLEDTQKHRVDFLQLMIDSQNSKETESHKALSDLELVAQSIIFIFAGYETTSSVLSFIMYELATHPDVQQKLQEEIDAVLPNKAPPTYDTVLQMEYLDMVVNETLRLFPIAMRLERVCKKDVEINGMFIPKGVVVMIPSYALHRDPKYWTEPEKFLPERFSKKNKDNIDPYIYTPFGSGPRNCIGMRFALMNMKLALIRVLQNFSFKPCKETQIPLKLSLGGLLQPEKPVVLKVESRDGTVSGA
Chain of rCYP2D6 (P10635 whole entry): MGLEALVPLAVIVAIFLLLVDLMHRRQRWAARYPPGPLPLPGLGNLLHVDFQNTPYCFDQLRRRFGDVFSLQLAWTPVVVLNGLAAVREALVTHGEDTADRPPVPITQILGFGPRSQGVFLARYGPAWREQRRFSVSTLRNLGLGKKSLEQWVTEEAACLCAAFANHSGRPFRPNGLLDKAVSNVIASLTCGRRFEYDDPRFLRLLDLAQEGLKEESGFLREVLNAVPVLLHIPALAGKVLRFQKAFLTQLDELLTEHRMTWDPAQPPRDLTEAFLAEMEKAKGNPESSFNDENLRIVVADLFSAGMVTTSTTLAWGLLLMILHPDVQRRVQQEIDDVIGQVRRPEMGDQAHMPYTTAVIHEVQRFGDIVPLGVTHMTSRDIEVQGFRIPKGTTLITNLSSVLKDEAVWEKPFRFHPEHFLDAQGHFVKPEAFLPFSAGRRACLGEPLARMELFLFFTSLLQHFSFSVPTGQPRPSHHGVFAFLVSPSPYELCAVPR

As for `CNC(=O)O/N=C/C(C)(C)S(C)(=O)=O` [Aldicarb sulfone, aldicarb sulfone], in series [1], the “% Metabolized at 30 min Incubation with Human Liver Fractions/Enzymes Cytosol” value stood at 0.00%. The inhibition at 2 µM against CYP3A4 [2] is 1.83%; against CYP3A4 [3], less than 0%; against CYP2C8, 2.77%. Besides, the inhibition at 10 µM on CYP3A4 [2] is less than 0%; on CYP3A4 [3] it was less than 0%; at CYP2C8, 4.1%. The “% Metabolized at 30 min Incubation with Human Liver Fractions/Enzymes HLM” value in series [4] is recorded as 1.05%.

As to `CNC(=O)O/N=C/C(C)(C)[S+](C)[O-]` (centres unmarked) [Aldicarb sulfoxide, aldicarb sulfoxide], the “% Metabolized at 30 min Incubation with Human Liver Fractions/Enzymes Cytosol” value in series [1] came to 0.00%. The “% Metabolized at 30 min Incubation with Human Liver Fractions/Enzymes rCYP3A4” value at rCYP3A4 (setting [5]) was determined as 5.91%. In addition, the “Predicted Microsomal Clint, CYP3A4” value at rCYP3A4 (human, pH 7.4) was 2.254 µL/min/mg Protein. Moreover, at rCYP3A4 (setting [6]), the “% Contribution of CYP Enzymes (fmCYP) in Metabolism, CYP3A4” value is 97.66% and the “rCYP Clint, CYP3A4” value was found to be 0.020 µL/min/pmol. At CYP3A4 [2], the inhibition at 2 µM is less than 0% and the inhibition at 10 µM is less than 0%. Also, on CYP3A4 [3], the inhibition at 2 µM is less than 0% and the inhibition at 10 µM was less than 0%. Moreover, in [4], the “% Metabolized at 30 min Incubation with Human Liver Fractions/Enzymes HLM” value was 21.18%. For the same compound, at CYP2C8, the inhibition at 2 µM was less than 0% and the inhibition at 10 µM stood at 2.32%. The “% Metabolized at 30 min Incubation with Human Liver Fractions/Enzymes rCYP1A2” value on rCYP1A2 came to 0.00%. The “% Metabolized at 30 min Incubation with Human Liver Fractions/Enzymes rCYP2C8” value at rCYP2C8 is recorded as 0.00%. In addition, the “% Metabolized at 30 min Incubation with Human Liver Fractions/Enzymes rCYP2C9” value at rCYP2C9 was determined as 0.00%. The “% Metabolized at 30 min Incubation with Human Liver Fractions/Enzymes rCYP2D6” value on rCYP2D6 is listed as 0.00%. The “% Metabolized at 30 min Incubation with Human Liver Fractions/Enzymes rCYP2C19” value at rCYP2C19 was 0.85%. Moreover, on rCYP2C19 (setting [7]), the “% Contribution of CYP Enzymes (fmCYP) in Metabolism, CYP2C19” value worked out at 2.34%; the “Predicted Microsomal Clint, CYP2C19” value is 0.054 µL/min/mg Protein; the “rCYP Clint, CYP2C19” value was 0.003 µL/min/pmol.

`CNC(=O)O/N=C/C(C)(C)SC` [Aldicarb, aldicarb]: the “% Metabolized at 30 min Incubation with Human Liver Fractions/Enzymes Cytosol” value in series [1] is 21.08%. Further, the “% Metabolized at 30 min Incubation with Human Liver Fractions/Enzymes rCYP3A4” value at rCYP3A4 (setting [5]) was found to be 0.00%. Further, at CYP3A4 [2], the inhibition at 2 µM was less than 0% and the inhibition at 10 µM is less than 0%. In addition, at CYP3A4 [3], the inhibition at 2 µM was less than 0% and the inhibition at 10 µM was less than 0%. The “% Metabolized at 30 min Incubation with Human Liver Fractions/Enzymes HLM” value in series [4] is 13.41%. On CYP2C8, this compound displayed an inhibition at 2 µM of 2.63% and an inhibition at 10 µM of less than 0%. Also, the “% Metabolized at 30 min Incubation with Human Liver Fractions/Enzymes rCYP1A2” value on rCYP1A2 was 0.00%. For the same compound, the “% Metabolized at 30 min Incubation with Human Liver Fractions/Enzymes rCYP2C8” value on rCYP2C8 turned out to be 13.26%. In addition, on rCYP2C8 (setting [8]), the “% Contribution of CYP Enzymes (fmCYP) in Metabolism, CYP2C8” value came to 56.91%; the “Predicted Microsomal Clint, CYP2C8” value was 3.035 µL/min/mg Protein; the “rCYP Clint, CYP2C8” value is 0.047 µL/min/pmol. The “% Metabolized at 30 min Incubation with Human Liver Fractions/Enzymes rCYP2C9” value at rCYP2C9 is on record as 0.00%. Also, on rCYP2C9 (setting [9]), the “% Contribution of CYP Enzymes (fmCYP) in Metabolism, CYP2C9” value was determined as 43.09%; the “Predicted Microsomal Clint, CYP2C9” value is 2.298 µL/min/mg Protein; the “rCYP Clint, CYP2C9” value worked out at 0.024 µL/min/pmol. Further, the “% Metabolized at 30 min Incubation with Human Liver Fractions/Enzymes rCYP2D6” value at rCYP2D6 is 0.00%. Besides, the “% Metabolized at 30 min Incubation with Human Liver Fractions/Enzymes rCYP2C19” value on rCYP2C19 was 6.93%.

Consider `CN(C)CCCOc1nn(Cc2ccccc2)c2ccccc12` [Benzydamine, reference compound], for which the “% Metabolized at 30 min Incubation with Human Liver Fractions/Enzymes HLM” value in [4] turned out to be 16.45%.

With `COc1ccc2c(c1)[C@]13CCCC[C@@H]1[C@H](C2)N(C)CC3` [Dextromethorphan, dextromethorphan], the “% Metabolized at 30 min Incubation with Human Liver Fractions/Enzymes rCYP2D6” value at rCYP2D6 is reported as 99.81%.

Regarding `O=C(O)Cc1ccccc1Nc1c(Cl)cccc1Cl` [Diclofenac, diclofenac, reference compound], on rCYP2C9, the “% Metabolized at 30 min Incubation with Human Liver Fractions/Enzymes rCYP2C9” value came out at 98.61%.

For `CN(Cc1cnc2nc(N)nc(N)c2n1)c1ccc(C(=O)N[C@@H](CCC(=O)O)C(=O)O)cc1` [Methotrexate, reference compound], the “% Metabolized at 30 min Incubation with Human Liver Fractions/Enzymes Cytosol” value in series [1] is reported as 3.18%.

As to `CC(=O)O[C@H]1C(=O)[C@@]2(C)[C@H]([C@H](OC(=O)c3ccccc3)[C@]3(O)C[C@H](OC(=O)[C@H](O)[C@@H](NC(=O)c4ccccc4)c4ccccc4)C(C)=C1C3(C)C)[C@]1(OC(C)=O)CO[C@@H]1C[C@@H]2O` [Paclitaxel, paclitaxel], at rCYP2C8, the “% Metabolized at 30 min Incubation with Human Liver Fractions/Enzymes rCYP2C8” value was found to be 11.21%.

For the compound `CCOc1ccc(NC(C)=O)cc1` [Phenacetin, phenacetin], the “% Metabolized at 30 min Incubation with Human Liver Fractions/Enzymes rCYP1A2” value on rCYP1A2 turned out to be 91.43%.

`c1ccc2cnncc2c1` [Phthalazine, phthalazine, reference compound]: the “% Metabolized at 30 min Incubation with Human Liver Fractions/Enzymes Cytosol” value in [1] worked out at 90.89%.

`CN(CCOc1ccc(CC2SC(=O)NC2=O)cc1)c1ccccn1` (centres unmarked) [Rosiglitazone, reference compound] displayed an inhibition at 25 µM against CYP2C8 of 69.2%.

On to `C[C@]12CC[C@H]3[C@@H](CCC4=CC(=O)CC[C@@]43C)[C@@H]1CC[C@@H]2O` [Testosterone, testosterone, reference compound], for which the “% Metabolized at 30 min Incubation with Human Liver Fractions/Enzymes rCYP3A4” value on rCYP3A4 (human, recombinant enzyme, 0.5 h, pH 7.4) turned out to be 85.13%. In addition, the “% Metabolized at 30 min Incubation with Human Liver Fractions/Enzymes HLM” value in series [4] worked out at 90.74%.

Take `O=c1cc(-c2ccccc2)oc2c1ccc1ccccc12` [α-Nepthoflavone, α-naphthoflavone, reference compound]: 20 nM produced 62.4% inhibition on CYP1A2.

A word on the inhibition: it is how much of the control response was suppressed.
